Assay results: BindingDB's records for doi:10.7270/Q2PZ576Z (The Scripps Research Institute Molecular Screening Center, 2007)

Target: Sphingosine 1-phosphate receptor 3 (Homo sapiens, UniProt Q99500)
Test: S1P3 receptor activation, EC50 – cell-based, NFAT-BLA reporter, dose response (AID 439)
[1] = inactive by the depositor's call

Chain of Sphingosine 1-phosphate receptor 3 (Q99500 whole entry): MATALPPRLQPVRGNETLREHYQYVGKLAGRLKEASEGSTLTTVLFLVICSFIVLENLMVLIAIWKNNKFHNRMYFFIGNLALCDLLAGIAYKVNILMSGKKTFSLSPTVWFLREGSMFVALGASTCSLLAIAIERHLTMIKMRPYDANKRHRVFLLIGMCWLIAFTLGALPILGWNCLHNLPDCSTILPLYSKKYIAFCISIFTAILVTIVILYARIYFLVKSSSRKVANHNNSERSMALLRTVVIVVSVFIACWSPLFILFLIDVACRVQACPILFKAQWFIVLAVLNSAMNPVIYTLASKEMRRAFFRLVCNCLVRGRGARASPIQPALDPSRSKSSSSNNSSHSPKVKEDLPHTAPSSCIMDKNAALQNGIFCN

SMILES	EC50 [µM]	EC50 [1] [µM]
Clc1ccc2nc(N3CCNCC3)nc(-c3ccccc3)c2c1	> 45	–
Cc1cc(-n2c(=O)c(C#N)cc3c(=O)n4ccccc4nc32)no1	–	26.4
CC(=O)Oc1ccc2cc(-c3nc4ccccc4n3C)c(=O)oc2c1	6.42	–
O=C(NC1=NCCS1)c1cc(-c2ccccc2)nn1-c1ccccc1	–	41.7
Cc1cc(NC(=O)NC(=O)c2cccc(OC(F)(F)C(F)F)c2)[nH]n1	> 45	–
Cc1cccn2c(=O)c3cc(C(=O)NC(C)c4ccccc4)c(=N)n(CCCn4ccnc4)c3nc12 (stereo not drawn) [1-(3-imidazol-1-ylpropyl)-2-imino-10-methyl-5-oxo-N-(1-phenylethyl)dipyrido[3,4-c:1',2'-f]pyrimidine-3-carboxamide]	–	17.4
CCCSc1nc(N2CCOCC2)c2c(c1C#N)CCCC2 [1-(4-morpholinyl)-3-(propylthio)-5,6,7,8-tetrahydroisoquinoline-4-carbonitrile]	4.34	–
COc1ccc(CCn2c(C)cc(C(=O)CSc3nnnn3C)c2C)cc1 [1-[1-[2-(4-methoxyphenyl)ethyl]-2,5-dimethyl-3-pyrrolyl]-2-[(1-methyl-5-tetrazolyl)thio]ethanone]	–	18.6
CC(Oc1ccccc1Br)C(=O)N1CCc2ccccc21 (stereo not drawn) [1-[2-(2-bromophenoxy)propanoyl]indoline]	–	25.2
Cc1cc(C)n(-c2nc(NCC(C)O)c3c4c(sc3n2)CCCC4)n1 (stereo not drawn) [1-[[2-(3,5-dimethyl-1-pyrazolyl)-5,6,7,8-tetrahydro-[1]benzothiolo[2,3-d]pyrimidin-4-yl]amino]-2-propanol]	7.79	–
O=C(OCCN1C(=O)c2ccccc2C1=O)c1cccc(OC(F)F)c1 [2-(1,3-dioxoisoindol-2-yl)ethyl 3-(difluoromethoxy)benzoate]	> 45	–
Cc1cc(C)n(-c2nc(NCc3cccnc3)c3c4c(sc3n2)COC(C)(C)C4)n1 [2-(3,5-dimethyl-1-pyrazolyl)-6,6-dimethyl-N-(3-pyridinylmethyl)-5,8-dihydropyrano[4,5]thieno[1,2-c]pyrimidin-4-amine]	–	15.3
COCCNc1nc(-n2nc(C)cc2C)nc2sc3c(c12)CCCC3 [2-(3,5-dimethyl-1-pyrazolyl)-N-(2-methoxyethyl)-5,6,7,8-tetrahydro-[1]benzothiolo[2,3-d]pyrimidin-4-amine]	–	13.3
Cc1cc(C)nc(-n2nc(C)c(Sc3ccc(F)cc3)c2N)n1 [2-(4,6-dimethyl-2-pyrimidinyl)-4-[(4-fluorophenyl)thio]-5-methyl-3-pyrazolamine]	2.34	–
CC(C)n1c(=N)c(C(=O)NCCc2ccccc2)cc2c(=O)n3ccccc3nc21 [2-Imino-1-isopropyl-10-oxo-1,10-dihydro-2H-1,9,10a-triaza-anthracene-3-carboxylic acid phenethyl-amide]	> 45	–
COc1ccc(Nc2nc(Nc3ccc(OC)cc3)nc(-n3[nH]c(=O)c(C)c3C)n2)cc1 [2-[4,6-bis(4-methoxyanilino)-1,3,5-triazin-2-yl]-3,4-dimethyl-1H-pyrazol-5-one]	–	14.7
OCCN1CCN(c2nc(-c3ccccc3)c3cc(Cl)ccc3n2)CC1 [2-[4-(6-chloranyl-4-phenyl-quinazolin-2-yl)piperazin-1-yl]ethanol]	–	108
CCCCC(=O)NC(Nc1nc(C2CC2)cs1)(C(=O)OCC)C(F)(F)F (stereo not drawn) [2-[(4-cyclopropyl-2-thiazolyl)amino]-3,3,3-trifluoro-2-(1-oxopentylamino)propanoic acid ethyl ester]	9.87	–
N#CCSc1nnc(-c2ccccc2)c(-c2ccccc2)n1 [2-[(5,6-diphenyl-1,2,4-triazin-3-yl)sulfanyl]acetonitrile]	–	47.4
CCC(C)NC(=O)c1c(N)n(Cc2ccc3c(c2)OCO3)c2nc3ccccc3nc12 (stereo not drawn) [2-amino-1-(1,3-benzodioxol-5-ylmethyl)-N-butan-2-ylpyrrolo[3,2-b]quinoxaline-3-carboxamide]	7.93	–
Nc1c(C(=O)NCCc2ccccc2)c2nc3ccccc3nc2n1CCN1CCOCC1 [2-amino-1-(2-morpholin-4-ylethyl)-N-(2-phenylethyl)pyrrolo[3,2-b]quinoxaline-3-carboxamide]	–	37.5
COc1ccc(CCn2c(N)c(C(=O)NCc3ccco3)c3nc4ccccc4nc32)cc1OC [2-amino-1-[2-(3,4-dimethoxyphenyl)ethyl]-N-(2-furanylmethyl)-3-pyrrolo[3,2-b]quinoxalinecarboxamide]	–	45
CCCCCCn1c(N)c(C(=O)NCCN2CCOCC2)c2nc3ccccc3nc21 [2-amino-1-hexyl-N-(2-morpholin-4-ylethyl)pyrrolo[3,2-b]quinoxaline-3-carboxamide]	–	42.3
CCOC(=O)C1C(=N)OC2=C(C(=O)CCC2)C1c1ccccc1OCC (stereo not drawn) [2-amino-4-(2-ethoxyphenyl)-5-oxo-4,6,7,8-tetrahydro-1-benzopyran-3-carboxylic acid ethyl ester]	18.5	–
Nc1c(C(=O)NCc2ccco2)c2nc3ccccc3nc2n1CCN1CCCCC1 [2-amino-N-(2-furanylmethyl)-1-[2-(1-piperidinyl)ethyl]-3-pyrrolo[3,2-b]quinoxalinecarboxamide]	> 45	–
COc1ccc(Cn2c(N)c(C(=O)NCc3ccco3)c3nc4ccccc4nc32)cc1 [2-amino-N-(2-furanylmethyl)-1-[(4-methoxyphenyl)methyl]-3-pyrrolo[3,2-b]quinoxalinecarboxamide]	–	19.8
CC(C)OCCCNC(=O)c1c(N)n(Cc2cccs2)c2nc3ccccc3nc12 [2-amino-N-(3-propan-2-yloxypropyl)-1-(thiophen-2-ylmethyl)pyrrolo[3,2-b]quinoxaline-3-carboxamide]	–	22.2
O=C(Oc1ccc(-c2nnco2)cc1)N(c1ccccc1)c1ccccc1 [4-(1,3,4-oxadiazol-2-yl)phenyl diphenylcarbamate]	–	14.1
COCCCn1c(N)c(C(=O)NCCC(C)C)c2nc3ccccc3nc21 [MLS000041744]	–	31.4

More lines, now with the values ahead:

EC50 [µM]	EC50 [1] [µM]	SMILES
–	19.1	Nc1c(C(=O)NCc2ccc3c(c2)OCO3)c2nc3ccccc3nc2n1CCCN1CCOCC1 [2-amino-N-(1,3-benzodioxol-5-ylmethyl)-1-(3-morpholin-4-ylpropyl)pyrrolo[3,2-b]quinoxaline-3-carboxamide]
–	178	Nc1c(C(=O)NCCN2CCOCC2)c2nc3ccccc3nc2n1CCc1ccccc1 [2-amino-N-[2-(4-morpholinyl)ethyl]-1-(2-phenylethyl)-3-pyrrolo[3,2-b]quinoxalinecarboxamide]
> 45	–	Cc1ccc(-c2cc(-c3ccc(Cl)cc3)c(C#N)c(N)n2)o1 [2-azanyl-4-(4-chlorophenyl)-6-(5-methylfuran-2-yl)pyridine-3-carbonitrile]
> 45	–	Cc1nc(-c2ccccc2)cc(N2CCCC2)n1 [2-methyl-4-phenyl-6-(1-pyrrolidinyl)pyrimidine]
–	11.6	CCOc1ccc(-c2noc(-c3ccncc3)n2)cc1OCC [3-(3,4-diethoxyphenyl)-5-(4-pyridyl)-1,2,4-oxadiazole]
–	14.5	CCSc1nc(N2CCOCC2)c2c(c1C#N)CCCC2 [3-(ethylthio)-1-(4-morpholinyl)-5,6,7,8-tetrahydroisoquinoline-4-carbonitrile]
4.28	–	Cc1cc(C)n(-c2nc(NCCCO)c3c4c(sc3n2)CCCC4)n1 [3-[[2-(3,5-dimethyl-1-pyrazolyl)-5,6,7,8-tetrahydro-[1]benzothiolo[2,3-d]pyrimidin-4-yl]amino]-1-propanol]
–	29.5	O=c1c2ccccc2nnn1CSc1nnc(C2COc3ccccc3O2)n1-c1ccccc1 (stereo not drawn) [3-[[5-(2,3-dihydro-1,4-benzodioxin-3-yl)-4-phenyl-1,2,4-triazol-3-yl]sulfanylmethyl]-1,2,3-benzotriazin-4-one]
–	23.5	CCCn1c(=O)c2ccccc2n2c(SCc3c(C(=O)OCC)oc4ccccc34)nnc12 [3-[[(5-keto-4-propyl-[1,2,4]triazolo[4,3-a]quinazolin-1-yl)thio]methyl]coumarilic acid ethyl ester]
–	17.2	COc1ccccc1Oc1cc(C#N)c(C#N)cc1-n1nnc2ccccc21 [4-(1-benzotriazolyl)-5-(2-methoxyphenoxy)benzene-1,2-dicarbonitrile]
6.63	–	c1ccc(-c2nnc(N3CCOCC3)nc2-c2ccccc2)cc1 [4-(5,6-diphenyl-1,2,4-triazin-3-yl)morpholine]
> 45	–	CCOC(=O)N1CCN(C(=O)c2nn(-c3cc(OC)cc(OC)c3)c(=O)c3ccccc23)CC1 [4-[3-(3,5-dimethoxyphenyl)-4-keto-phthalazine-1-carbonyl]piperazine-1-carboxylic acid ethyl ester]
5.24	–	c1ccc(C(Cc2nc(-c3ccncc3)no2)c2ccccc2)cc1 [4-[5-(2,2-diphenylethyl)-1,2,4-oxadiazol-3-yl]pyridine]
2.77	–	CCOc1ccc(-c2nc(-c3ccncc3)no2)cc1OCC [4-[5-(3,4-diethoxyphenyl)-1,2,4-oxadiazol-3-yl]pyridine]
–	74.6	Cc1ccc(C(C)C)c(OCc2nc(-c3nonc3N)no2)c1 [4-[5-[(5-methyl-2-propan-2-yl-phenoxy)methyl]-1,2,4-oxadiazol-3-yl]-1,2,5-oxadiazol-3-amine]
–	41.6	c1ccc(-c2nc3nonc3nc2-c2ccccc2)cc1 [5,6-diphenyl-[1,2,5]oxadiazolo[3,4-b]pyrazine]
–	21.1	c1ccc(C(Cc2nc(-c3ccccn3)no2)c2ccccc2)cc1 [5-(2,2-diphenylethyl)-3-(2-pyridinyl)-1,2,4-oxadiazole]
–	13.5	c1ccc(C(Cc2nc(-c3cccnc3)no2)c2ccccc2)cc1 [5-(2,2-diphenylethyl)-3-(3-pyridinyl)-1,2,4-oxadiazole]
–	19.2	CCOc1ccc(-c2nc(-c3ccccc3)no2)cc1OCC [5-(3,4-diethoxyphenyl)-3-phenyl-1,2,4-oxadiazole]
–	31.2	Cn1c(=O)c2c(-c3ccccc3)n(C3CCCCC3)cc2n(C)c1=O [6-cyclohexyl-1,3-dimethyl-5-phenyl-pyrrolo[3,4-d]pyrimidine-2,4-dione]
–	38.5	C/C(Cl)=C/Cn1c(N2CCCC2)nc2c1c(=O)n(C)c(=O)n2C [7-((Z)-3-Chloro-but-2-enyl)-1,3-dimethyl-8-pyrrolidin-1-yl-3,7-dihydro-purine-2,6-dione]
> 45	–	CCCN(CCC)CCCNC(=O)CC1Nc2ccccc2NC1=O (stereo not drawn) [MLS000046817]
–	17.7	O=C(NCc1ccco1)c1cc2ccc(O)cc2oc1=O [MLS000049147]
> 45	–	CCCCn1c(NC(=O)c2ccc(F)cc2)c(C#N)c2nc3ccccc3nc21 [MLS000055622]
